Results on 3 compounds are retold here after paper PMC3709818, “A Novel Perspective and Approach to Intestinal Octreotide Absorption: Sinomenine-Mediated Reversible Tight Junction Opening and Its Molecular Mechanism” (International Journal of Molecular Sciences, 2013).

A short description of series [1]: OCT transport across Caco-2 cell monolayers. It is filed as in vitro ADME, human. As to conditions: Caco-2, 21 days, Transwell, 10 μM OCT with or without 0.5% SN, PBS pH 7.4, 120 min, 37 °C, LC-MS/MS, triplicate, mean ± s.d. Here is the method: Caco-2 cells were seeded onto polycarbonate 12-well Transwell® filter inserts as described above. The OCT transport experiment was performed in the apical-to-basolateral directions in PBS adjusted to pH 7.4 [7]. A volume of 0.5 mL of 0.5% SN containing 10 μM OCT was added to the apical side of Caco-2 cell monolayers. The medium in the basolateral side was buffered by the addition of 1.5 mL PBS of each well. Samples of 0.1 mL were withdrawn at time intervals of 30, 60, 90 and 120 min from the basolateral side after the incubation of the solutions on the apical side of cell monolayers. The samples withdrawn were replaced with an equal volume of buffered PBS. Control experiments were performed using a solution of OCT alone. […]
The results were corrected for dilution and plotted as the percentage cumulative OCT transported as a function of time. The apparent permeability coefficients (Papp) were calculated according to the following equation [33]: Papp = ΔQ/(Δt × A × C0) (cm/s), where ΔQ/Δt is the amount of OCT transported within a given time period or permeability rate (ng/min), A is the surface area of the cell monolayer on the insert (cm^2) and C0 is the initial drug concentration (ng/mL). Permeation enhancement ratios (R) were calculated from the Papp values using the following equation R = Papptest/Pappcontrol.

Series [2] relates to claudin-1. The experiment in a line: Claudin-1 gene and protein expression (real-time PCR, western blot, immunofluorescence). As to conditions: Caco-2 monolayers. It is filed as cell-based, human. The procedure: Caco-2 cells were grown on 6-well plates for 21 days and were then treated with SN for 2 h. Then, SN was removed by washing the cells with PBS twice. The cells were grown with new culture medium for another 2 h. To observe the effect of PKC on SN, cells in another group were treated with 0.5% SN and 10 μM Ro318220 together for 2 h. Control experiments were performed under the same conditions but without SN. The gene level expressions induced by SN treatment and after its removal were investigated. Total RNA was extracted following a standard guanidinium phenol-chloroform extraction protocol. The quantity of mRNA was determined by measuring the optical density at 260 nm (A260 nm = 1 for 40 μg/mL RNA), and the purity of mRNA was assessed by determining the ratio of the optical density obtained at 260 and 280 nm (pure RNA: A260 nm/A280 nm = 2.0) using a UV-1206 spectrophotometer (Shimadzu, Tokyo, Japan). […] Quantitative real-time PCR was performed using the Applied Biosystems 7500 faster Real-Time PCR System with the SYBR® Premix Ex Taq™ (Tli RNaseH Plus) Master Mix purchased from Takara Bio Inc. (Dalian, China) in triplicate for each sample and each gene. […] The results were expressed as the folds of the CT value for the target mRNA to that of the β-actin mRNA. […]
(Real-time PCR tracks product formation cycle by cycle.)

Series [3] has as its system PKC-α. The experiment in a line: PKC-α translocation cytosol to membrane (western blot). It is filed as cell-based, human. The following applies: Caco-2 cells, 0.5% SN, 2 h. Here is the method:
Caco-2 cells were grown on 6-well plates and were treated with SN as described above. After treatment, cytosolic, membrane and total protein were extracted following the manufacturer’s instructions of the test kit from Nanjing KeyGEN Biotech. CO., LTD (China). The protocols for western blot analyses have been described previously. The protein concentration was calculated using the BCA Protein Assay Kit from Nanjing KeyGEN Biotech. CO., LTD (China). Equal amounts of protein samples (30 μg protein) were separated onto SDS-polyacrylamide gels (PKC and β-actin were 12% gels, claudin-1 was 15% gels), and the separated proteins were transferred to a PVDF membrane. After blocking in 5% skim milk in Tris-buffered saline containing 0.05% Tween-20 (TTBS), the PVDF membrane was incubated overnight in blocking buffer with diluted primary antibodies: anti-claudin-1 (Abcam, Cambridge, MA, USA, 1:1000 dilution), anti-PKC-α (Beyotime Institute of Biotechnology, China, 1:500 dilution), and anti-β-actin (Zhongshan Goldenbridge Biological Technology, Beijing, China, 1:500 dilution), at 4 °C. […] The product bands were photographed, and the density of each product band was quantified. The intensity of each signal was corrected using the values obtained from the immunodetection of β-actin, and the relative protein intensity was expressed as folds of the content in the normal group.

Series [4] deals with Caco-2 cell monolayers. The experiment in a line: LDH release cytotoxicity assay. It is filed as cell-based, human. Here is the method:
To examine the toxic effects of SN to the Caco-2 cells, a lactate dehydrogenase (LDH) release assay was performed according to Madara and Stafford. The Caco-2 monolayer, which had been cultured in 24-well plates for 21 days, was washed with 500 μL of the PBS and was then incubated with 500 μL of the PBS containing the samples (0.5%, 1%, 2% w/v SN) to be tested at 37 °C for 120 min. Control experiments were performed under the same conditions but without SN. The amounts of LDH in the supernatant were determined using the enzymatic method and following the manufacturer’s instructions of LDH-Cytotoxic test kit from Nanjing KeyGEN Biotech. CO., Ltd. (Nanjing, China). Cytotoxicity was determined after 120 min of SN treatment, and the absorbance at 440 nm (reference wavelength was 650 nm) was measured to determine LDH activity. The cytotoxicity to the Caco-2 cell monolayers was expressed by the ratio of LDH released into the supernatant compared with the control group.
The LDH activity was calculated thus: (U/L) = (ODu − ODc)/(ODs − ODb) × Cs × N × 1000, where ODu, ODc, ODs, ODb represent the absorbance of the test tube, control tube, standard tube, and background tube, respectively, C represents the standard concentration (2 mmol/L) and N represents the dilution ratio of the sample.

Series [5] concerns Caco-2 cell monolayers. The experiment in a line: FD-4 permeability (paracellular flux). As to conditions: 0.1% FD-4 apical, 0.5% SN with or without 10 μM Ro318220, up to 120 min, PBS pH 7.4, fluorescence. It is filed as cell-based, human. Here is the method:
The integrity of the cell monolayer TJs was also examined by evaluating the FD-4 permeability in PBS adjusted to pH 7.4. A volume of 0.5 mL of 0.1% FD-4 containing 0.5% SN or 0.5% SN + 10 μM Ro318220 was added to the apical side of Caco-2 cell monolayers. The medium in basolateral side was buffered by the addition of 1.5 mL PBS to each well. Samples of 0.1 mL were withdrawn at time intervals of 30, 60, 90 and 120 min from the basolateral side after the incubation of the solutions on the apical side of cell monolayers. The samples withdrawn were replaced with an equal volume of buffered PBS. Control experiments were performed using a solution of 0.1% FD-4 alone. All of the experiments were performed in triplicate at 37 °C in an atmosphere of 90% relative humidity and 5% CO2. Basolateral solutions were then sampled and analyzed.
Quantitative analysis of FD-4: Samples were centrifuged at 10,000 rpm for 10 min, and the supernatant was analyzed using a fluorescence spectrophotometer at an excitation wavelength of 495 nm and an emission wavelength of 520 nm (Hitachi, FP6500, Tokyo, Japan).
Permeation clearance: ΔQ/(Δt × C0), where ΔQ/Δt is the permeation flux, i.e., the transport rate (μg/min), and C0 is the initial concentration on the donor side (μg/mL). Clearance was obtained per unit surface area and expressed as nL/min/cm2.

Series [6] has as its system Caco-2 cell monolayers. As to the kind of experiment: Transepithelial electrical resistance (TEER) measurement. It is filed as cell-based, human. Here is the method:
The cell monolayer integrity was examined by measuring the TEER and evaluating the cell permeability to FD-4 in Caco-2 cell monolayers. The experiments were performed after Caco-2 cells formed polarized monolayers. Cells were seeded onto polycarbonate 12-well Transwell® filter inserts (Corning Costar Corp., Cambridge, MA, USA; pore size 0.4 μm, growth area 1.12 cm^2) at a density of 1 × 10^6 cells/mL, and the cells were grown for 21 days before the TEER study was conducted. After the application of 0.5% SN, TEER was measured at time intervals of 20 min for a period of 120 min. Then, the reversibility of SN on TEER was measured by removing SN from the apical compartment and replacing it with serum-free DMEM for a further 120 min at 20-min intervals. To observe the effect of PKC to SN, cells in another group were treated with 0.5% SN and 10 μM Ro318220 (PKC inhibitor) together for 120 min at 20-min intervals. Control experiments were performed under the same conditions but without SN. All of the experiments were performed in triplicate at 37 °C in an atmosphere of 90% relative humidity and 5% CO2. The TEER measurements across Caco-2 cell monolayers were performed using a Millicell ERS instrument (Millipore, Bedford, MA, USA). The TEER values of these cells after treatment were recorded. Resistance due to the cell monolayers was determined in the presence and the absence of SN after subtracting the contribution of the blank filter. The percent change in TEER was calculated as follows:
(1) TEER=(R1-R0)×A (Ω·cm^2)
where R1 and R0 represent the TEER readings from the wells with cells and the no-cell background wells, respectively, and A (cm^2) represents the surface area of the cell monolayer on the insert.
(2) TEER%=TEERtest/EERinitial×100

The conditions of series [7]: everted rat gut sac model; cited from earlier work.

Structures can show the parent of a compound that is named as a salt.

The term Papp A→B denotes how fast a substance crosses the layer from the apical side. Read a high Papp A→B as ready permeation.

`C[C@@H](O)[C@@H]1NC(=O)[C@H](CCCCN)NC(=O)[C@@H](Cc2c[nH]c3ccccc23)NC(=O)[C@H](Cc2ccccc2)NC(=O)[C@@H](NC(=O)[C@H](N)Cc2ccccc2)CSSC[C@@H](C(=O)N[C@H](CO)[C@@H](C)O)NC1=O` [OCT, Octreotide]: the Papp A→B in series [1] worked out at 2.67 ± 0.015 ×10⁻⁶ cm/s.
For the compound `COC1=C[C@@H]2[C@@H]3Cc4ccc(OC)c(O)c4[C@]2(CCN3C)CC1=O` [SN, Sinomenine hydrochloride], the “claudin-1 expression after SN removal” value in series [2] (0.5% SN 2 h, then 2 h after removal) is listed as “returned to its normal level”. The “claudin-1 gene and protein expression vs control” value in series [2] (0.5% SN with or without 10 μM Ro318220, 2 h) is “distinct loss of claudin-1 gene”. For the same compound, the “PKC-α distribution between cytosolic and membrane fraction” value in series [3] is reported as “most PKC-α was present in the membrane fraction”. For the same compound, the “LDH release vs control” value in series [4] (0.5% w/v SN, 120 min, PBS 37 °C, Caco-2 monolayers cultured 21 days) is recorded as “did not differ from the control”; in series [4] (2% w/v SN, 60 min, Caco-2 monolayers) it was “markedly increased LDH activity”. Besides, the “cytotoxicity by LDH test” value in series [4] (1% w/v SN, 120 min, Caco-2 monolayers) is recorded as “cytotoxic effects”; in series [4] (2% w/v SN, 120 min, Caco-2 monolayers), “cytotoxic effects”. The “FD-4 flux (A-B)” value in series [5] was “time-dependent increase in FD-4 flux”. Further, the “TEER recovery after SN removal vs control” value in series [6] (0.5% SN 120 min, then removal, at 240 min) is reported as “no difference compared with the control”. The “effect on TEER at 120 min vs control” value in series [6] (0.5% SN with or without 10 μM Ro318220, 120 min, Caco-2 monolayers, triplicate) is recorded as “strong reduction of TEER”. Also, the “TEER relative to the initial value” in series [6] (0.5% SN, 120 min incubation, pH 7.4, Caco-2 monolayers) was 43%. Also, the “time for transient and reversible opening of TJ” value in series [6] (0.5% SN, Caco-2 monolayers, recovery after removal) is on record as 2 h.
In the case of `C[C@@]12C[C@@]3(O)O[C@@H](O1)[C@]1(COC(=O)c4ccccc4)[C@H]3C[C@@]12O[C@@H]1O[C@H](CO)[C@@H](O)[C@H](O)[C@H]1O` [paeoniflorin], in series [7], the “increase of paeoniflorin absorption when co-incubated with SN” value is on record as “approximately 2.5 fold”.
